For the experiment, the target named is T1, human IDO1 (Homo sapiens, UniProt P14902).
T1 construct: expressed in transfected cells
The experiment can be described thus: HEK Human IDO-1 inhibition assay (kynurenine readout, Ehrlich reagent, absorbance 490 nm). The class given is cell-based. Particulars: human IDO1/HEK293 cells, incubated 20 hours with compound; 500 nM reference standard = 100% inhibition. Put shortly:
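HEK293 cells stably expressing human IDO1, treated with compound for 20 h at 37 °C in phenol red-free RPMI/10% FBS. Kynurenine detected after TCA (0.2% final, 50 °C, 30 min) by Ehrlich reagent absorbance at 490 nm; IC50 normalised to 500 nM reference standard (100%) and DMSO (0%).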

For 30 compounds, IC50 results are on record in patent US10689331B2, “IDO inhibitors” (Bristol-Myers Squibb Company, priority 2015, dated 2020).

T1 sequence (P14902 whole entry): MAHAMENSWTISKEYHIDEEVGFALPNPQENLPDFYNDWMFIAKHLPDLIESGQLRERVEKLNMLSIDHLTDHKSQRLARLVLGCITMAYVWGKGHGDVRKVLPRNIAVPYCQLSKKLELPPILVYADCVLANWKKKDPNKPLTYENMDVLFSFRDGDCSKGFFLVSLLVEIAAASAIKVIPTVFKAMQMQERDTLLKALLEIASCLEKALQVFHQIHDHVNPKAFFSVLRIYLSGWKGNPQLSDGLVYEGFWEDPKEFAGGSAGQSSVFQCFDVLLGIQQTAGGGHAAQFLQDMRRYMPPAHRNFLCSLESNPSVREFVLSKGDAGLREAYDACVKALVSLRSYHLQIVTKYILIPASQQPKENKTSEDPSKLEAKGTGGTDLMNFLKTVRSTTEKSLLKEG

The term IC50 denotes the midpoint of a concentration-inhibition curve. For `CC(C)CN(c1ccc(OCC(=O)O)cc1NC(=O)Nc1ccc(Cl)c(F)c1)C1CCCCC1` [Example 36, 2-(3-(3-(4-chloro-3-fluorophenyl)ureido)-4-(cyclohexyl(isobutyl)amino)phenoxy)acetic acid], the IC50 was less than 100 nM.
Under `CC(C)CN(c1ccc(OCC(=O)O)cc1NC(=O)Nc1ccc(Cl)cc1F)C1CCC(O)CC1` (stereo not drawn) [Example 150, 2-(3-(3-(4-chloro-2-fluorophenyl)ureido)-4-((( )-4 hydroxycyclohexyl)(isobutyl)amino)phenoxy)acetic acid] stands no less than 100 nM; under `COc1ccc(NC(=O)Nc2cc(OC(C)C(=O)O)ccc2N(CC(C)C)C2CCCCC2)c(F)c1` (single isomer, unassigned) [Example 64-2, 2-(4-(cyclohexyl(isobutyl)amino)-3-(3-(2-fluoro-4-methoxyphenyl)ureido)phenoxy)propanoic acid], less than 5 nM.
The figure for `CCCC(Oc1ccc(N(CC(C)C)C2CCCCC2)c(NC(=O)Nc2ccccc2F)c1)C(=O)O` (single isomer, unassigned) [Example 87-1, 2-(4-(cyclohexyl(isobutyl)amino)-3-(3-(2-fluorophenyl)ureido)phenoxy)pentanoic acid] is less than 5 nM; for `CC(C)CN(c1ccc(OC(C)C(=O)O)cc1NC(=O)Nc1ccc(Cl)cc1F)C1CCOC1` (stereo not drawn) [Example 145, 2-(3-(3-(4-chloro-2-fluorophenyl)ureido)-4-(isobutyl(tetrahydrofuran-3-yl)amino)phenoxy)propanoic acid] it is less than 100 nM; for `COc1cc(F)c(NC(=O)Nc2cc(OCC(=O)O)ccc2N(CC(C)C)C2CCCCC2)cc1F` [Example 29, 2-(4-(cyclohexyl(isobutyl)amino)-3-(3-(2,5-difluoro-4-methoxy-phenyl)ureido)phenoxy)acetic acid] it is less than 100 nM.
For `CC(C)CN(c1ncc(OCC(=O)O)cc1NC(=O)Nc1ccc(Cl)cc1F)C1CCCCC1` [Example 102, 2-((5-(3-(4-chloro-2-fluorophenyl)ureido)-6-(cyclohexyl(isobutyl)amino)pyridin-3-yl)oxy)acetic acid], the IC50 was less than 5 nM.
Under `CC(C)CN(c1ccc(OC2(C(=O)O)CC2)cc1NC(=O)Nc1ccc(Cl)cc1F)C1CCCCC1` [Example 93, 1-(3-(3-(4-chloro-2-fluorophenyl)ureido)-4-(cyclohexyl(isobutyl)amino)phenoxy)cyclopropanecarboxylic acid] stands less than 5 nM; under `Cc1ccc(NC(=O)Nc2cc(OCC(=O)NS(=O)(=O)N(C)C)ccc2N(CC(C)C)C2CCCCC2)cc1` [Example 52, 2-(4-(cyclohexyl(isobutyl)amino)-3-(3-(p-tolyl)ureido)phenoxy)-N—(N,N-dimethylsulfamoyl)acetamide], less than 100 nM; under `C=C(C)CN1CCC(N(CC(=C)C)c2ccc(OCC(=O)O)cc2NC(=O)Nc2ccc(Cl)cc2F)CC1` [Example 142, 2-(3-(3-(4-chloro-2-fluorophenyl)ureido)-4-((2-methylallyl)(1-(2-methylallyl)piperidin-4-yl)amino)phenoxy)acetic acid], less than 100 nM.
Turning to `CCC(Oc1ccc(N(CC(C)C)C2CCCCC2)c(NC(=O)Nc2ccc(Cl)cc2F)c1)C(=O)O` (single isomer, unassigned) [Example 80-1, 2-(3-(3-(4-chloro-2-fluorophenyl)ureido)-4-(cyclohexyl(isobutyl)amino)phenoxy)butanoic acid], the IC50 was less than 5 nM.
Under `CC(C)CN(c1ccc(OCC(=O)O)cc1NC(=O)Nc1ccc(OCc2ccccc2)cc1)C1CCCCC1` [Example 15, 2-(3-(3-(4-(benzyloxy)phenyl)ureido)-4-(cyclohexyl(isobutyl)amino)phenoxy)acetic acid] stands no less than 100 nM; under `COCC(Oc1ccc(N(CC(C)C)C2CCCCC2)c(NC(=O)Nc2ccc(C)cc2)c1)C(=O)O` (single isomer, unassigned) [Example 90-2, 2-(4-(cyclohexyl(isobutyl)amino)-3-(3-(p-tolyl)ureido)phenoxy)-3-methoxypropanoic acid], less than 100 nM.
As to `CC(C)CN(c1cc(F)c(OC(C)C(=O)O)cc1NC(=O)Nc1ccc(Cl)cc1F)C1CCCCC1` (racemic) [racemic 136], the half-inhibitory concentration (IC50) was less than 5 nM.
Under `CC(C)CN(c1cc(F)c(OCC(=O)O)cc1NC(=O)Cc1ccc(Cl)cc1F)C1CCCCC1` [Example 133, 2-(5-(2-(4-chloro-2-fluorophenyl)acetamido)-4-(cyclohexyl(isobutyl)amino)-2-fluorophenoxy)acetic acid] stands less than 100 nM; under `C=C(C)CN(CCCC(F)(F)F)c1cc(F)c(OCC(=O)O)cc1NC(=O)Nc1ccc(C)cc1` [Example 120], less than 100 nM; under `CC(C)CN(c1ccc(OCC(=O)O)cc1N(C)C(=O)Nc1ccc(Cl)cc1F)C1CCCCC1` [Example 45], no less than 100 nM.
The figure for `CC(C)CN(c1ccc(OC(C)C(=O)O)cc1NC(=O)Nc1ccccc1F)C1CCCCC1` (single isomer, unassigned) [Example 59-1, 2-(4-(cyclohexyl(isobutyl)amino)-3-(3-(2-fluoro-phenyl)ureido)phenoxy)propanoic acid] is less than 5 nM; for `CC(C)CN(c1ccc(OC(C)C(=O)NS(=O)(=O)C2CC2)cc1NC(=O)Nc1ccc(Cl)cc1F)C1CCCCC1` (racemic) [Example 70, (±)-2-(3-(3-(4-chloro-2-fluorophenyl)ureido)-4-(cyclohexyl(isobutyl)amino)phenoxy)-N-(cyclopropylsulfonyl) propanamide] it is less than 5 nM; for `CC(C)CN(c1ccc(OC(C)C(=O)O)cc1NC(=O)Nc1ccc(Cl)cc1F)C1CCOC1` (single isomer, unassigned) [Example 146-2, 2-(3-(3-(4-chloro-2-fluorophenyl)ureido)-4-(isobutyl(tetrahydrofuran-3-yl)amino)phenoxy)propanoic acid] it is less than 100 nM.
The figure for `Cc1cc(NC(=O)Nc2cc(OCC(=O)NS(=O)(=O)C3CC3)ccc2N(CC(C)C)C2CCCCC2)no1` [Example 50, 2-(4-(cyclohexyl(isobutyl)amino)-3-(3-(5-methyl-isoxazol-3-yl)ureido)phenoxy)-N-(cyclopropylsulfonyl)acetamide] is no less than 100 nM; for `CC(C)CN(c1ccc(OCC(=O)O)cc1NC(=O)Nc1ccc(F)cc1)C1CCCCC1` [Example 17, 2-(4-(cyclohexyl(isobutyl)amino)-3-(3-(4-fluorophenyl)ureido)phenoxy)acetic acid] it is less than 100 nM; for `CC(C)CN(c1ccc(OC(C)C(=O)O)cc1NC(=O)Nc1ccc(C#N)cc1)C1CCCCC1` (single isomer, unassigned) [Example 66-1, 2-(3-(3-(4-cyanophenyl)ureido)-4-(cyclohexyl(isobutyl)amino)phenoxy)propanoic acid] it is less than 100 nM.
Turning to `C=C(C)CN(c1ccc(OC(C)C(=O)O)cc1NC(=O)Nc1ccc(Cl)cc1F)C1CCOCC1` (single isomer, unassigned) [Example 139-1, 2-(3-(3-(4-chloro-2-fluorophenyl)ureido)-4-((2-methylallyl)(tetrahydro-2H-pyran-4-yl)amino)phenoxy)propanoic acid], the concentration for half-maximal inhibition (IC50) is less than 100 nM.
Under `CCC(Oc1ccc(N(CC(C)C)C2CCOCC2)c(NC(=O)Nc2ccc(Cl)cc2F)c1)C(=O)O` (single isomer, unassigned) [Example 143-1, 2-(3-(3-(4-chloro-2-fluorophenyl)ureido)-4-(isobutyl(tetrahydro-2H-pyran-4-yl)amino)phenoxy)butanoic acid] stands less than 100 nM; under `CC(C)CN(c1ccc(OCc2nnn[nH]2)cc1NC(=O)Nc1ccccc1F)C1CCCCC1` [Example 97, 1-(5-((1H-tetrazol-5-yl)methoxy)-2-(cyclohexyl(isobutyl)amino)phenyl)-3-(2-fluorophenyl)urea], less than 5 nM.
On to `CCCN(Cc1ccccc1)c1ccc(OCC(=O)O)cc1NC(=O)Cc1ccc(C)cc1` [Example 166, 2-(4-(benzyl(propyl)amino)-3-(2-(p-tolyl)acetamido)phenoxy)acetic acid], for which the IC50 was no less than 100 nM.
The figure for `Cc1ccc(CC(=O)Nc2cc(OC(C)C(=O)O)ccc2N(CC(C)C)C2CCCCC2)c(F)c1` (racemic) [Example 76, 2-(4-(cyclohexyl(isobutyl)amino)-3-(2-(2-fluoro-4-methylphenyl)acetamido)phenoxy)propanoic acid] is less than 100 nM; for `C=C(C)CN(c1ccc(OC(C)C(=O)O)cc1NC(=O)Nc1ccc(C)cc1)C1CCOCC1` (racemic) [Example 140, (+/−)-2-(4-((2-methylallyl)(tetrahydro-2H-pyran-4-yl)amino)-3-(3-(p-tolyl)ureido)phenoxy)propanoic acid] it is no less than 100 nM; for `CC(C)CN(c1ccc(OCC(=O)Nc2ncco2)cc1NC(=O)Nc1ccc(Cl)cc1F)C1CCCCC1` [Example 154, 2-(3-(3-(4-chloro-2-fluorophenyl)ureido)-4-(cyclohexyl(isobutyl)amino)phenoxy)-N-(oxazol-2-yl)acetamide] it is less than 5 nM.
